Results on 4 compounds are retold here after US20060183189A1, “Regulatable gene expression in mammalian cells and mammals” (priority 2003, published 2006).

The target of assay [1] is T1, AlkS (Ectopseudomonas oleovorans, UniProt P17051).
T1 construct: expressed in transfected cells; host or cells: CHO-K1
The experiment in a line: AlkS-based regulatable SEAP expression in CHO-K1 cells. The format is cell-based, Pseudomonas putida (oleovorans). The following applies: CHO-K1 cells transfected with AlkS and PSV40 promoter with 8 OP repeats; upon addition of regulating compound. The source says:
A regulatable expression system responsive to liquid or gaseous inducers based on bacterial elements is constructed by PCR-cloning the Pseudomonas putida (oleovorans)-derived RTF AlkS (Smiths et al., 2001. Plasmid 46, 16-24) into the mammalian expression vector pEF6V5-His TOPO (Invitrogen, Carlsbad, Calif.). The responsive promoter is constructed by cloning 8 repeats of the AlkS-specific OP site downstream of the simian virus 40 promoter PSV40 followed by a reporter gene, the secreted alkaline phosphatase SEAP.
Transfection of the plasmids encoding AlkS and the responsive promoter controlling SEAP expression in CHO-K1 cells results in SEAP expression levels typical for PSV40-driven constitutive expression.

Assay [2] deals with T2, AlcR (Emericella nidulans, UniProt P21228).
T2 construct: excising alcR (EcoRI/SalI) from an alcR cDNA containing vector; expressed in transfected cells; host or cells: CHO-K1
T2 sequence (P21228 whole entry): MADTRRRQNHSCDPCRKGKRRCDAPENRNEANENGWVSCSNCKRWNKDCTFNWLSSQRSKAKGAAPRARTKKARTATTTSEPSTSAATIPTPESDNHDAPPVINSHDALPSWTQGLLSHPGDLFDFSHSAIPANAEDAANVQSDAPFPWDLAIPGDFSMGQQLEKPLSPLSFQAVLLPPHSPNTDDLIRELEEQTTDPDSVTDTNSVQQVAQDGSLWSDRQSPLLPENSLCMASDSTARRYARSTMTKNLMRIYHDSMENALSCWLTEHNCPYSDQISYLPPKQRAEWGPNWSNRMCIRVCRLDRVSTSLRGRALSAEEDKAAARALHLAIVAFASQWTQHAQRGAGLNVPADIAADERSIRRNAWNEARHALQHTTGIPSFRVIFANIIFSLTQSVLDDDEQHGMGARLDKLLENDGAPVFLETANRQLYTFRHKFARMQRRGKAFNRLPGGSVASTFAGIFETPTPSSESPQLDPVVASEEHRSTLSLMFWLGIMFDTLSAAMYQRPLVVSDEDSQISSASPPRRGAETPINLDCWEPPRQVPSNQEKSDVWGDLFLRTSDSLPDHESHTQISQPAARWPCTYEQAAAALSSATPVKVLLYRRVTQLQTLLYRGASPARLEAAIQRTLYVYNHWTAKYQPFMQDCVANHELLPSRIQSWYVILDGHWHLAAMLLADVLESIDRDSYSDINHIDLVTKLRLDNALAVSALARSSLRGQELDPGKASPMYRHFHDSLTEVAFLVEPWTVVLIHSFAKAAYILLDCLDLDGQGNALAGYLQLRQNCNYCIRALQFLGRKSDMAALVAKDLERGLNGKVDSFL
Kind of assay: Gas-phase controlled SEAP expression of stable CHO-K1-derived cell line in a bioreactor. It is filed as cell-based, Aspergillus nidulans. Particulars: 2.5 L bioreactor, gassing in air containing 340 ppm acetaldehyde, then 40 ppm; shut down by sparging with pure air. The source says:
A stable CHO-K1-derivative engineered for acetaldehyde-inducible SEAP expression is cultivated in a bioreactor. […] The specific SEAP productivities (μU/10^6 cells/h) are indicated over time (h).
A CHO-K1-derived cell line is constructed for gas-inducible expression of a secreted alkaline phosphatase (SEAP) by stable transfection/transduction with plasmid pWW192 (see Example 1) and a pWW506-based viral particle (see Example 4).

SMILES strings stand for the structures.

T1 sequence (P17051 whole entry): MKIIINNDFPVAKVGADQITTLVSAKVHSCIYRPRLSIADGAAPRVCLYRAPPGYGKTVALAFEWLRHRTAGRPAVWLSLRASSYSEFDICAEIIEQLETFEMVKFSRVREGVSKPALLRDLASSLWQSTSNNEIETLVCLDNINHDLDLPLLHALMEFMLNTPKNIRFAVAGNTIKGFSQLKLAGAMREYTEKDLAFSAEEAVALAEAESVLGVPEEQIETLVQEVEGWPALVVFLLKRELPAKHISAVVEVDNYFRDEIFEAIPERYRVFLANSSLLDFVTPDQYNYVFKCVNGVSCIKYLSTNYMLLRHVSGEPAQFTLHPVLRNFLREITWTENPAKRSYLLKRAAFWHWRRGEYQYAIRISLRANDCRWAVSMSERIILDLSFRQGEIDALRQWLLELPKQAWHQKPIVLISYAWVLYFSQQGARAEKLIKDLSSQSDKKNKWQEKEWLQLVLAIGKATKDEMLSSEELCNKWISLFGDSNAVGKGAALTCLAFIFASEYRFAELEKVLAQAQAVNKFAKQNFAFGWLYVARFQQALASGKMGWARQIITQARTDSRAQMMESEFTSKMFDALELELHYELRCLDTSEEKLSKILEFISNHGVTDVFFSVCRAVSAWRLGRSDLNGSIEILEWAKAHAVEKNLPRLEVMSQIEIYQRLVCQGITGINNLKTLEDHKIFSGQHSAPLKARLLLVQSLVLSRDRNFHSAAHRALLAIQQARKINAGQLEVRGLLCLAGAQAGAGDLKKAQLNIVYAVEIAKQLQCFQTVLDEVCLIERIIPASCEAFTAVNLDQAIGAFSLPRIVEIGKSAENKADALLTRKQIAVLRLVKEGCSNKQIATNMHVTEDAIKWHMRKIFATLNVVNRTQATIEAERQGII

`O=C(C1CC1)C1CC1` [dicyclopropylketone]: in assay [1], the SEAP expression entry is given as “decreases in a dose-dependent manner”.

Consider `CC=O` [acetaldehyde], for which the SEAP expression result in assay [2] is “induced”.

For the compound `CCOC(C)=O` [ethyl acetate], in assay [1], the SEAP expression result is reported as “decreases in a dose-dependent manner”.

Turning to `CCOCC` [ethyl ether], the SEAP expression entry in assay [1] was “decreases in a dose-dependent manner”.
